Laboratory results from US20250171438A1 (Agios Pharmaceuticals, Inc., priority 2022, published 2025).

Target: T1, human PAH with the R408W mutation (Homo sapiens, UniProt P00439, R408W)
T1 construct: expressed in transfected cells
T1 sequence (P00439 1-452 R408W): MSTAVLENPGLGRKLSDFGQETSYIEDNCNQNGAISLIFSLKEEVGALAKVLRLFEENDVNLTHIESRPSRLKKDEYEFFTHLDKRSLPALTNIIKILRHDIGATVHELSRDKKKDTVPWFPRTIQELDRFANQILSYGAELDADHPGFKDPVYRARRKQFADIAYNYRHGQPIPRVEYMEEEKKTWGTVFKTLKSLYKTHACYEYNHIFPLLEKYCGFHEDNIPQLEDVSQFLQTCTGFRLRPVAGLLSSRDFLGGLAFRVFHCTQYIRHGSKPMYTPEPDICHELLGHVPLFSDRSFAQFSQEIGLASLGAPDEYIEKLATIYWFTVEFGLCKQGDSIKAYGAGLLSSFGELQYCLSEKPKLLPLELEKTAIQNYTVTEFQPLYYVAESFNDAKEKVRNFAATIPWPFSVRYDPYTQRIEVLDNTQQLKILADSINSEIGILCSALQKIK
Assay: Cell Based Phenylalanine Flux Assay
Conditions: A375 cells expressing human R408W PAH; 24 hrs compound incubation; 13C-Tyrosine by LC-MS; average where tested multiple times; read-out: AC50

| AC50 | Compound |
| --- | --- |
| < 500 nM | O=C(CCc1nccs1)N1CCc2[nH]cnc2[C@H]1c1nc2ccc(Br)cc2[nH]1 [Example 908, (S)-1-(4-(6-bromo-1H-benzo[d]imidazol-2-yl)-6,7-dihydro-1H-imidazo[4,5-c]pyridin-5(4H)-yl)-3-(thiazol-2-yl)propan-1-one] |
| > 5000 nM | O=C(CCc1nccs1)N1CCc2[nH]cnc2[C@@H]1c1nc2ccc(Br)cc2[nH]1 [Example 909, (R)-1-(4-(6-bromo-1H-benzo[d]imidazol-2-yl)-6,7-dihydro-1H-imidazo[4,5-c]pyridin-5(4H)-yl)-3-(thiazol-2-yl)propan-1-one] |
| 500 to 1000 nM | O=C(CCc1nccs1)N1CCc2[nH]cnc2[C@H]1c1nc2ccc(Cl)cc2[nH]1 [Example 910, (S)-1-(4-(6-chloro-1H-benzo[d]imidazol-2-yl)-6,7-dihydro-1H-imidazo[4,5-c]pyridin-5(4H)-yl)-3-(thiazol-2-yl)propan-1-one] |
| > 5000 nM | O=C(CCC1CCCC1)N1CCc2[nH]cnc2[C@@H]1c1nc2ccccc2[nH]1 [Example 912, (R)-1-(4-(1H-benzo[d]imidazol-2-yl)-6,7-dihydro-1H-imidazo[4,5-c]pyridin-5(4H)-yl)-3-cyclopentylpropan-1-one] |
| 500 to 1000 nM | O=C(CCC1CCCC1)N1CCc2[nH]cnc2[C@H]1c1nc2ccccc2[nH]1 [Example 913, (S)-1-(4-(1H-benzo[d]imidazol-2-yl)-6,7-dihydro-1H-imidazo[4,5-c]pyridin-5(4H)-yl)-3-cyclopentylpropan-1-one] |
| 500 to 1000 nM | O=C(c1cncs1)N1CCc2[nH]cnc2[C@H]1c1nc2ccccc2[nH]1 [Example 914, (S)-(4-(1H-benzo[d]imidazol-2-yl)-6,7-dihydro-1H-imidazo[4,5-c]pyridin-5(4H)-yl)(thiazol-5-yl)methanone] |
| > 5000 nM | O=C(c1cncs1)N1CCc2[nH]cnc2[C@@H]1c1nc2ccccc2[nH]1 [Example 915, (R)-(4-(1H-benzo[d]imidazol-2-yl)-6,7-dihydro-1H-imidazo[4,5-c]pyridin-5(4H)-yl)(thiazol-5-yl)methanone] |
| 500 to 1000 nM | O=C(c1nc(Cl)cs1)N1CCc2[nH]cnc2[C@H]1c1nc2ccccc2[nH]1 [Example 917, (S)-(4-(1H-benzo[d]imidazol-2-yl)-6,7-dihydro-1H-imidazo[4,5-c]pyridin-5(4H)-yl)(4-chlorothiazol-2-yl)methanone] |
| > 5000 nM | COc1cccc(CCCC(=O)N2CCc3[nH]cnc3[C@@H]2c2nc3ccccc3[nH]2)c1 [Example 918, (R)-1-(4-(1H-benzo[d]imidazol-2-yl)-6,7-dihydro-1H-imidazo[4,5-c]pyridin-5(4H)-yl)-4-(3-methoxyphenyl)butan-1-one] |
| 1000 to 5000 nM | COc1cccc(CCCC(=O)N2CCc3[nH]cnc3[C@H]2c2nc3ccccc3[nH]2)c1 [Example 919, (S)-1-(4-(1H-benzo[d]imidazol-2-yl)-6,7-dihydro-1H-imidazo[4,5-c]pyridin-5(4H)-yl)-4-(3-methoxyphenyl)butan-1-one] |
| > 5000 nM | O=C(c1ncc(Cl)s1)N1CCc2[nH]cnc2[C@@H]1c1nc2ccccc2[nH]1 [Example 920, (R)-(4-(1H-benzo[d]imidazol-2-yl)-6,7-dihydro-1H-imidazo[4,5-c]pyridin-5(4H)-yl)(5-chlorothiazol-2-yl)methanone] |
| 500 to 1000 nM | O=C(c1ncc(Cl)s1)N1CCc2[nH]cnc2[C@H]1c1nc2ccccc2[nH]1 [Example 921, (S)-(4-(1H-benzo[d]imidazol-2-yl)-6,7-dihydro-1H-imidazo[4,5-c]pyridin-5(4H)-yl)(5-chlorothiazol-2-yl)methanone] |
| > 5000 nM | O=C(c1cnn2ccccc12)N1CCc2[nH]cnc2[C@@H]1c1nc2ccccc2[nH]1 [Example 922, (R)-(4-(1H-benzo[d]imidazol-2-yl)-6,7-dihydro-1H-imidazo[4,5-c]pyridin-5(4H)-yl)(pyrazolo[1,5-a]pyridin-3-yl)methanone] |
| 500 to 1000 nM | O=C(c1cnn2ccccc12)N1CCc2[nH]cnc2[C@H]1c1nc2ccccc2[nH]1 [Example 923, (S)-(4-(1H-benzo[d]imidazol-2-yl)-6,7-dihydro-1H-imidazo[4,5-c]pyridin-5(4H)-yl)(pyrazolo[1,5-a]pyridin-3-yl)methanone] |
| 500 to 1000 nM | O=C(c1cnn2cc(F)ccc12)N1CCc2[nH]cnc2[C@H]1c1nc2ccccc2[nH]1 [Example 924, (S)-(4-(1H-benzo[d]imidazol-2-yl)-6,7-dihydro-1H-imidazo[4,5-c]pyridin-5(4H)-yl)(6-fluoropyrazolo[1,5-a]pyridin-3-yl)methanone] |
| 1000 to 5000 nM | O=C(c1cnn2ccc(Br)cc12)N1CCc2[nH]cnc2[C@H]1c1nc2ccccc2[nH]1 [Example 925, (S)-(4-(1H-benzo[d]imidazol-2-yl)-6,7-dihydro-3H-imidazo[4,5-c]pyridin-5(4H)-yl)(5-bromopyrazolo[1,5-a]pyridin-3-yl)methanone] |

| AC50 | Compound |
| --- | --- |
| 500 to 1000 nM | O=C(c1ccccc1)N1CCc2[nH]cnc2[C@H]1c1nc2ccccc2[nH]1 [Example 928, (S)-(4-(1H-benzo[d]imidazol-2-yl)-1,4,6,7-tetrahydro-5H-imidazo[4,5-c]pyridin-5-yl)(phenyl)methanone] |
| < 500 nM | O=C(CC1CCCC1)N1CCc2[nH]cnc2[C@H]1c1nc2ccccc2[nH]1 [Example 929, (S)-1-(4-(1H-benzo[d]imidazol-2-yl)-6,7-dihydro-1H-imidazo[4,5-c]pyridin-5(4H)-yl)-2-cyclopentylethanone] |
| < 500 nM | CC(C)(C)CC(=O)N1CCc2[nH]cnc2[C@H]1c1nc2ccccc2[nH]1 [Example 930, (S)-1-(4-(1H-benzo[d]imidazol-2-yl)-6,7-dihydro-1H-imidazo[4,5-c]pyridin-5(4H)-yl)-3,3-dimethylbutan-1-one] |
| < 500 nM | O=C(CC1CC1)N1CCc2[nH]cnc2[C@H]1c1nc2ccccc2[nH]1 [Example 931, (S)-1-(4-(1H-benzo[d]imidazol-2-yl)-6,7-dihydro-1H-imidazo[4,5-c]pyridin-5(4H)-yl)-2-cyclopropylethanone] |
| > 5000 nM | O=C(c1nccs1)N1CCc2[nH]cnc2[C@@H]1c1nc2ccc(Br)cc2[nH]1 [Example 932, (R)-(4-(6-bromo-1H-benzo[d]imidazol-2-yl)-6,7-dihydro-1H-imidazo[4,5-c]pyridin-5(4H)-yl)(thiazol-2-yl)methanone] |
| 1000 to 5000 nM | O=C(c1nccs1)N1CCc2[nH]cnc2[C@H]1c1nc2ccc(Br)cc2[nH]1 [Example 933, (S)-(4-(6-bromo-1H-benzo[d]imidazol-2-yl)-6,7-dihydro-1H-imidazo[4,5-c]pyridin-5(4H)-yl)(thiazol-2-yl)methanone] |
| 1000 to 5000 nM | O=C(CCC1CC1)N1CCc2[nH]cnc2[C@@H]1c1nc2ccc(Br)cc2[nH]1 [Example 934, (R)-1-(4-(6-bromo-1H-benzo[d]imidazol-2-yl)-6,7-dihydro-1H-imidazo[4,5-c]pyridin-5(4H)-yl)-3-cyclopropylpropan-1-one] |
| < 500 nM | O=C(CCC1CC1)N1CCc2[nH]cnc2[C@H]1c1nc2ccc(Br)cc2[nH]1 [Example 935, (S)-1-(4-(6-bromo-1H-benzo[d]imidazol-2-yl)-6,7-dihydro-1H-imidazo[4,5-c]pyridin-5(4H)-yl)-3-cyclopropylpropan-1-one] |
| 1000 to 5000 nM | O=C(c1cnn2ccccc12)N1CCc2[nH]cnc2[C@H]1c1nc2ccc(Cl)cc2[nH]1 [Example 936, (S)-(4-(6-chloro-1H-benzo[d]imidazol-2-yl)-6,7-dihydro-1H-imidazo[4,5-c]pyridin-5(4H)-yl)(pyrazolo[1,5-a]pyridin-3-yl)methanone] |
| 1000 to 5000 nM | O=C(c1cnn2ccccc12)N1CCc2[nH]cnc2[C@@H]1c1nc2ccc(Cl)cc2[nH]1 [Example 937, (R)-(4-(6-chloro-1H-benzo[d]imidazol-2-yl)-6,7-dihydro-1H-imidazo[4,5-c]pyridin-5(4H)-yl)(pyrazolo[1,5-a]pyridin-3-yl)methanone] |
| 1000 to 5000 nM | O=C(CCC1CC1)N1CCc2[nH]cnc2[C@@H]1c1nc2ccc(Cl)cc2[nH]1 [Example 938, (R)-1-(4-(6-chloro-1H-benzo[d]imidazol-2-yl)-6,7-dihydro-1H-imidazo[4,5-c]pyridin-5(4H)-yl)-3-cyclopropylpropan-1-one] |
| < 500 nM | O=C(CCC1CC1)N1CCc2[nH]cnc2[C@H]1c1nc2ccc(Cl)cc2[nH]1 [Example 939, (S)-1-(4-(6-chloro-1H-benzo[d]imidazol-2-yl)-6,7-dihydro-1H-imidazo[4,5-c]pyridin-5(4H)-yl)-3-cyclopropylpropan-1-one] |
| 500 to 1000 nM | O=C(c1cnn2ccccc12)N1CCc2[nH]cnc2[C@H]1c1nc2ccc(Br)cc2[nH]1 [Example 940, (S)-(4-(6-bromo-1H-benzo[d]imidazol-2-yl)-6,7-dihydro-1H-imidazo[4,5-c]pyridin-5(4H)-yl)(pyrazolo[1,5-a]pyridin-3-yl)methanone] |
| 1000 to 5000 nM | O=C(c1cnn2ccccc12)N1CCc2[nH]cnc2[C@@H]1c1nc2ccc(Br)cc2[nH]1 [Example 941, (R)-(4-(6-bromo-1H-benzo[d]imidazol-2-yl)-6,7-dihydro-1H-imidazo[4,5-c]pyridin-5(4H)-yl)(pyrazolo[1,5-a]pyridin-3-yl)methanone] |
| 500 to 1000 nM | CC(C)(C)CCC(=O)N1CCc2[nH]cnc2[C@H]1c1nc2ccc(Br)cc2[nH]1 [Example 942, (S)-1-(4-(6-bromo-1H-benzo[d]imidazol-2-yl)-6,7-dihydro-1H-imidazo[4,5-c]pyridin-5(4H)-yl)-4,4-dimethylpentan-1-one] |
